Assay results published in paper PMC7360964, “Auto‐inhibition of Mif2/CENP‐C ensures centromere‐dependent kinetochore assembly in budding yeast” (The EMBO Journal, 2020).
Where no end group is shown, it is not given here.

Biological target: T1, MN (Saccharomyces cerevisiae, UniProt P39731+P47149)
T1 construct: made in house; host or cells: E. coli BL21 (DE3)
T1 sequence (P39731 1-289): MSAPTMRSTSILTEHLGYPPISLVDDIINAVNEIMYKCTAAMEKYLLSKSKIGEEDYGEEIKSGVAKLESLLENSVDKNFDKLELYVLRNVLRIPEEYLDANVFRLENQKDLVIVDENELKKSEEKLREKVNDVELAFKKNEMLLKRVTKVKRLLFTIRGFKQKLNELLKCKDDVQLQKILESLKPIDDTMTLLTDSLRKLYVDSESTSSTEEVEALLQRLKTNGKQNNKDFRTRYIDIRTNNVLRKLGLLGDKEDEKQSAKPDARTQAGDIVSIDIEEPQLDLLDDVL
T1 sequence (P47149 1-201): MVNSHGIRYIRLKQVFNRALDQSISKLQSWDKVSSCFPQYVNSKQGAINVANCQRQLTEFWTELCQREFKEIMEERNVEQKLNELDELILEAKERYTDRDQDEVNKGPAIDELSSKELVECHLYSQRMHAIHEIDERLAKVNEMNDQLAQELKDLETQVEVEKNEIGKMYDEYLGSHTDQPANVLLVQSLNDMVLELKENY
Test: Isothermal titration calorimetry (ITC) with MN
Format: binding, budding yeast (S. cerevisiae)
Conditions: summary of FP and ITC assays
Excerpt: Figure 5 The Mif2 N‐terminus is prevented from high‐affinity Mtw1c binding in the full‐length molecule • Co‐purification of Strep‐Mtw1c through Flag‐Mif2 after co‐expression in insect cells. Proteins were detected by Western blotting using their respective tags. • Western blotting of elution fractions from an SEC experiment of Mif2‐wt or Mif2^Ame1‐N swap in the absence (upper panel) or presence (lower panel) of Mtw1c. • ITC analysis of Mif2^1‐41 or Ame1^1‐20 binding to MN. Experiments were performed 3 or 4 times, respectively. One representative binding curve is shown, whereas the KD value represents the average of all experiments. • Cross‐link (XL) MS analysis of the Mif2wt protein in isolation or bound to Cse4n using the cross‐linker Bis[sulfosuccinimidyl] glutarate. Mif2wt alone or in combination with Cse4n was subjected to analytical size‐exclusion chromatography at 10 μM concentration. The corresponding Coomassie‐stained SDS–PAGE gels of Mif2‐wt alone or in combination with Cse4n are shown. Fractions used for cross‐linking are highlighted. […]
The binding constant of Ame1 could only be indirectly measured in the FP competition assay, as labeling of Ame1 N‐terminal peptides rendered them insoluble. We therefore directly determined binding affinities of Mif2 and Ame1 N‐terminal peptides to MN using isothermal titration calorimetry (ITC). […]

Sequence: MDYMKLGLKSRKTGIDVKQDIPKDEYSMENIDDFFKDDETS [Mif2^1‐41]
- dissociation constants for Mtw1 constructs: low micromolar range
